Here are results for one compound from publication PMC11984586, “A novel spider toxin as a selective antagonist of the Kv1 subfamily of voltage-gated potassium channels through gating modulation” (The Journal of Biological Chemistry, 2025).

Bridge positions count the residues as written; N and C are the ends. Peptide text beside a SMILES is read from it.

What all share (type): cell-based
The target of assay [1] is T1, Kv1.3/ET (Kv1.3/Q355 E_M358T) (Homo sapiens, UniProt P22001, M358T/Q355E).
T1 construct: expressed in transfected cells; host or cells: CHO-K1
T1 sequence (P22001 whole entry Q355E/M358T): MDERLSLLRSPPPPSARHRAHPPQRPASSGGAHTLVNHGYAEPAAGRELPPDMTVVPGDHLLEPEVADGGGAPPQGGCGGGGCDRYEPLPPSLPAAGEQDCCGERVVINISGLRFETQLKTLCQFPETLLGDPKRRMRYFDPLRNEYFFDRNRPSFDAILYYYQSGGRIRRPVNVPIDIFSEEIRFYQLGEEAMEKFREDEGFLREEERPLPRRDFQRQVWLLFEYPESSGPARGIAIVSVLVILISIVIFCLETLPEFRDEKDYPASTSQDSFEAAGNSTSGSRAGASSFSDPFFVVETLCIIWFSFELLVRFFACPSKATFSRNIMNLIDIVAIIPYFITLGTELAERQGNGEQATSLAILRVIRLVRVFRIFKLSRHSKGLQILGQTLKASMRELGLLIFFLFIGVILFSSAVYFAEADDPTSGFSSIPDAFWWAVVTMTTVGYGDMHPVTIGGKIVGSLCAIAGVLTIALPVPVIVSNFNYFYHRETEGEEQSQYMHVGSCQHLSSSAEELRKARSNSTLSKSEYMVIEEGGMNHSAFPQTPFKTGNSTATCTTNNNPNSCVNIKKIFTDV
Briefly: Whole-cell patch clamp, Kv1.3 double mutant. The following applies: +30 mV, mean ± SD, n = 3–5. An excerpt:
In contrast, differences at positions 347, 355, and 358 between Kv1.3 and Kv1.1 prompted further analysis. To explore whether these discrepancies influence peptide-mediated inhibition, we substituted these residues in Kv1.3 with their homologous counterparts in Kv1.1 and assessed the MrVIII's inhibitory efficacy on these single-point mutants. […] To further investigate this, we introduced double adjacent mutations around Q355 and M358 in Kv1.3 to explore potential synergistic effects on MrVIII's inhibitory activity. […]
(§1) CHO-K1 cells were selected for expressing Kv channels due to their lack of endogenous Kv channels, while HEK293 or ND7/23 cells were used for Nav and Cav channel expression. […] After 4 to 6 h transfection, cells were seeded onto poly-lysine–coated coverslips, and 24 to 36 h later, transfected cells were ready for patch-clamp analysis. […]
For Kv current recordings, the bath solution contained (in mM) the following: 140 NaCl, 5 KCl, 1 MgCl2, 2 CaCl2, 10 glucose, and 10 Hepes (pH 7.3, adjusted with NaOH), and the pipette solution contained (in mM) the following: 140 KCl, 2.5 MgCl2, 11 EGTA, and 10 Hepes (pH 7.3, adjusted with KOH). […] Whole cell conductance (G) at each depolarizing voltage (V) was determined using the equation: G = I/(V−Vrev), where I is the current amplitude, and Vrev is the reversal potential. […]

Another assay has as its target T2, rKv1.4 (Rattus norvegicus, UniProt P15385).
T2 construct: expressed in transfected cells; host or cells: CHO-K1
Briefly: Whole-cell patch clamp, Kv1.4 ionic current in CHO-K1 cells. The procedure: (§2) The cDNA of hKv1.1, hKv1.2, hKv1.3, rKv1.4, hKv1.5, mKv1.6, and hKv1.7 were subcloned into mammalian expression vectors pcDNA3.1 or pCMV-blank vectors, as well as other plasmids described previously ([35]). Channel mutants were generated by site-directed mutations. Briefly, the parental channel plasmid was amplified using a pair of oppositely directed primers harboring the designed mutation site, with KOD Fx (TOYOBO Co, Ltd). The resulting PCR mix was treated with FastDigest DpnI (Thermo Fisher Scientific) to remove the methylated template. Ten microliters of the digested product was then used to transform 100 μl E. coli DH5α competent cells. […]
as §1
For Kv current recordings, the bath solution contained (in mM) the following: 140 NaCl, 5 KCl, 1 MgCl2, 2 CaCl2, 10 glucose, and 10 Hepes (pH 7.3, adjusted with NaOH), and the pipette solution contained (in mM) the following: 140 KCl, 2.5 MgCl2, 11 EGTA, and 10 Hepes (pH 7.3, adjusted with KOH). […] The steady-state fast inactivation of Kv1.3 was measured using a two-pulses protocol. […]

The next assay addresses T3, Kv1.3/M358T (Homo sapiens, UniProt P22001, M358T).
T3 construct: expressed in transfected cells; host or cells: CHO-K1
Briefly: Whole-cell patch clamp, Kv1.3 point mutant. The following applies: +30 mV stimulus, mean ± SD, n = 5, read-out: IC50, Kv1.3/M358T current.
Text: (§3) In contrast, differences at positions 347, 355, and 358 between Kv1.3 and Kv1.1 prompted further analysis. To explore whether these discrepancies influence peptide-mediated inhibition, we substituted these residues in Kv1.3 with their homologous counterparts in Kv1.1 and assessed the MrVIII's inhibitory efficacy on these single-point mutants. […] To further investigate this, we introduced double adjacent mutations around Q355 and M358 in Kv1.3 to explore potential synergistic effects on MrVIII's inhibitory activity.
as §2, §1
(§4) For Kv current recordings, the bath solution contained (in mM) the following: 140 NaCl, 5 KCl, 1 MgCl2, 2 CaCl2, 10 glucose, and 10 Hepes (pH 7.3, adjusted with NaOH), and the pipette solution contained (in mM) the following: 140 KCl, 2.5 MgCl2, 11 EGTA, and 10 Hepes (pH 7.3, adjusted with KOH). […] Whole cell conductance (G) at each depolarizing voltage (V) was determined using the equation: G = I/(V−Vrev), where I is the current amplitude, and Vrev is the reversal potential. […] The steady-state fast inactivation of Kv1.3 was measured using a two-pulses protocol. […]

A further assay concerns the target T4, Kv1.3/L347I (Homo sapiens, UniProt P22001, L347I).
T4 construct: expressed in transfected cells; host or cells: CHO-K1
Briefly: Whole-cell patch clamp, Kv1.3 point mutant. The conditions noted are these: +30 mV stimulus, mean ± SD, n = 5, read-out: IC50, Kv1.3/L347I current.
Text: as §3, §2, §1, §4

A further assay has as its target T5, Kv1.3/Q355E (Homo sapiens, UniProt P22001, Q355E).
T5 construct: expressed in transfected cells; host or cells: CHO-K1
Kind of assay: Whole-cell patch clamp, Kv1.3 point mutant. The conditions noted are these: +30 mV stimulus, mean ± SD, n = 5, read-out: IC50, Kv1.3/Q355E current.
Text: as §3, §2, §1, §4

T2 sequence (P15385 whole entry): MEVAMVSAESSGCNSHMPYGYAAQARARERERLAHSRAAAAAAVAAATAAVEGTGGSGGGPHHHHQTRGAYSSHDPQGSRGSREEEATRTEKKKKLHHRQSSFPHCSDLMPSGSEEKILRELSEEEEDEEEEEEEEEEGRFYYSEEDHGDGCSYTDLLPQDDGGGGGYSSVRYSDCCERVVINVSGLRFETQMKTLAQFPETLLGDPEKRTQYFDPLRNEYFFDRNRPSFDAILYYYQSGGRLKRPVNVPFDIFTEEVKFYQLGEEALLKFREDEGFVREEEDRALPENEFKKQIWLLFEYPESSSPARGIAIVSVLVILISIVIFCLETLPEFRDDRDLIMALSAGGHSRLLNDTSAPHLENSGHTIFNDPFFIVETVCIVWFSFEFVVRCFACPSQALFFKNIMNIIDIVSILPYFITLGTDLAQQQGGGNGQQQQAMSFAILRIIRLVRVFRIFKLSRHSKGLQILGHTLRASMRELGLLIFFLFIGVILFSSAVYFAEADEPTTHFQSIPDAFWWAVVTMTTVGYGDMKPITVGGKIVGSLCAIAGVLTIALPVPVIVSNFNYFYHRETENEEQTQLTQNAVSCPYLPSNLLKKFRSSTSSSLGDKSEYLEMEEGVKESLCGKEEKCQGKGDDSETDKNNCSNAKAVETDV
T5 sequence (P22001 whole entry Q355E): as the sequence (P22001 whole entry Q355E/M358T) above, with T358M counted along it
T4 sequence (P22001 whole entry L347I): as the sequence (P22001 whole entry Q355E/M358T) above, with L347I, E355Q, T358M counted along it
T3 sequence (P22001 whole entry M358T): as the sequence (P22001 whole entry Q355E/M358T) above, with E355Q counted along it

On to `CC[C@H](C)[C@@H]1NC(=O)[C@H](Cc2ccc(O)cc2)NC(=O)[C@H](CCC(N)=O)NC(=O)[C@@H]2CCCN2C(=O)[C@@H]2CSSC[C@H](NC(=O)[C@H](C)NC(=O)[C@H](CO)NC(=O)[C@H](CCC(=O)O)NC(=O)[C@H](CCC(=O)O)NC(=O)[C@@H](N)[C@@H](C)O)C(=O)NCC(=O)NCC(=O)N[C@@H](Cc3ccccc3)C(=O)N[C@@H](CC(N)=O)C(=O)N[C@@H](C)C(=O)N[C@@H](CCCNC(=N)N)C(=O)N[C@H]3CSSC[C@H](NC1=O)C(=O)N[C@@H](CCCCN)C(=O)NCC(=O)N[C@@H](Cc1c[nH]c4ccccc14)C(=O)N[C@@H](CCCNC(=N)N)C(=O)N[C@@H]([C@@H](C)O)C(=O)N[C@@H](CCCCN)C(=O)N[C@@H](CCCNC(=N)N)C(=O)N[C@H](C(=O)N[C@@H](CC(C)C)C(=O)N[C@@H](CC(N)=O)C(=O)N1CCC[C@H]1C(=O)O)CSSC[C@H](NC(=O)[C@H](CCCCN)NC(=O)[C@H](Cc1c[nH]cn1)NC(=O)[C@H](CC(C)C)NC(=O)[C@@H]1CCCN1C3=O)C(=O)N2` [MrVIII] (H-TEESACGGFNARCPLHKCCPQYICKGWRTKRCLNP-OH; disulfide 6-19, 13-24, 18-32; N-terminus and C-terminus assumed), for which the IC50 in assay [1] (current at 50 ms) amounted to 122 ± 24.5 nM; against rKv1.4 (current measured at 50 ms of a 500 ms depolarization to +30 mV, mean ± SD, n = 4–7, SD) it was 62.7 ± 56.9 nM; at Kv1.3/M358T, 143 ± 33 nM; at Kv1.3/L347I, 14.2 ± 0.8 nM; at Kv1.3/Q355E, 14.2 ± 7.2 nM. The “inhi%(495 ms), Kv1.3/ET current” value in assay [1] (current at 495 ms) is listed as −35.4 ± 20.7%. The “enhancement of the 495 ms current of Kv1.4” value at rKv1.4 (in the presence of MrVIII (10 μM saturating), +30 mV, 495 ms) was 3.9 fold.
